Article PMC10610214 (Pharmaceuticals, 2023)

How the values were obtained:
[1] = molecular target: T1, AChE (from electric eel) (Electrophorus electricus, UniProt O42275); experiment: biochemical; settings: for IC50: AChE from electric eel, mean ± SD of three experiments, read-out: AChE Inhibition (IC50); for Selective Index, IC50 (BChE)/IC50 (AChE): AChE selectivity index
T1 construct: AChE (from electric eel); purchased Sigma Chemical Company (St. Louis, MO, USA)
Protocol: (§1) The ChE inhibitory activity of the test compounds was determined using the modified Ellman’s method. The compounds were dissolved in DMSO (10 mmol/L) and then diluted with PB (phosphate buffer) solution to attain a range of final concentrations. […] Briefly, 100 μL of different concentrations of the test or standard compounds and 100 μL of AChE/BuChE (0.5 U/mL) were added into 48-well plates and then co-incubated at 37 °C for 30 min. […] All concentrations mentioned are final.

[2] = molecular target: T2, BuChE (from equine serum) (Equus caballus, UniProt P81908); experiment: biochemical; settings: mean ± SD of three experiments, read-out: BuChE Inhibition (IC50)
T2 construct: BuChE (from equine serum); purchased Sigma Chemical Company (St. Louis, MO, USA); host or cells: equine serum
T2 sequence (P81908 whole entry): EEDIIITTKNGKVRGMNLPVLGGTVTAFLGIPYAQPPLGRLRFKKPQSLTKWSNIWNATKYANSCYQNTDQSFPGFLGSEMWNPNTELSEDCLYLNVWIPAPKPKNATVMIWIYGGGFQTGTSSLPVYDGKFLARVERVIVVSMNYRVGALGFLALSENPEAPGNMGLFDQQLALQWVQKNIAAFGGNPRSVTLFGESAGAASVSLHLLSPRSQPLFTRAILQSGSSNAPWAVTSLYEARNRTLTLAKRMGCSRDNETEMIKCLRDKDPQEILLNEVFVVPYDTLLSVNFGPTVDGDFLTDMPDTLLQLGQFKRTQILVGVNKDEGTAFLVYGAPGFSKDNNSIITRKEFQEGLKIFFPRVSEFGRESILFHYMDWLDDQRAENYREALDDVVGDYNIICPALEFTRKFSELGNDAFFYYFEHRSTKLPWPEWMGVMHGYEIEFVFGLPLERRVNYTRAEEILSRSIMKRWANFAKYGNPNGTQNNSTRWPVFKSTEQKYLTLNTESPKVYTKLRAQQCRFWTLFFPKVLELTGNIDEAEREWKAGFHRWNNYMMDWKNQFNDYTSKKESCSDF
Protocol: as §1

[3] = system: H2O2-induced PC12 cells; experiment: Neuroprotection against H2O2-induced PC12 cell injury (MTT); assay type: cell-based; settings: H2O2 250 μM, mean ± SEM
Protocol: Neuroprotection assay is similar to cytotoxicity. Oxidative cellular damage caused by H2O2 has become one of the important methods to study oxidative damage in neural cells. PC12 cells were seeded into a 96-well plate at a density of 5.0 × 10^3 cells per well. After the cells were incubated overnight, the old medium was discarded. […] After incubating overnight, 20 μL of MTT solution (5 mg/mL, Sigma-Aldrich) was added per well, and the cells were incubated for an additional 4 h. Afterwards, the supernatant was removed and 150 μL of DMSO was added. The 96-well plate was placed on the shaker for 10–15 min, and then the absorbance at 492 nm was measured by a microplate reader.

[4] = system: PC12 cells; experiment: Cytotoxicity in PC12 cells (MTT); assay type: cell-based
Protocol: The cytotoxicity and neuroprotective effects of the compounds on PC12 cells were evaluated by MTT assay. PC12 cells were seeded into a 96-well plate at a density of 5.0 × 10^3 cells per well. After the cells were incubated overnight, the old medium was discarded. The cells were incubated for another 24 h with fresh medium containing compounds at a concentration of 30 or 50 μM. A total of 20 μL of MTT solution (5 mg/mL, Sigma-Aldrich, Shanghai, China) was then added per well, and the cells were incubated for an additional 4 h. Afterwards, the supernatant was removed and 150 μL of DMSO was added to solubilize formazan crystals. The 96-well plate was placed on the shaker for 10–15 min, and then the absorbance at 492 nm was measured by a microplate reader.

T1 sequence (O42275 24-633): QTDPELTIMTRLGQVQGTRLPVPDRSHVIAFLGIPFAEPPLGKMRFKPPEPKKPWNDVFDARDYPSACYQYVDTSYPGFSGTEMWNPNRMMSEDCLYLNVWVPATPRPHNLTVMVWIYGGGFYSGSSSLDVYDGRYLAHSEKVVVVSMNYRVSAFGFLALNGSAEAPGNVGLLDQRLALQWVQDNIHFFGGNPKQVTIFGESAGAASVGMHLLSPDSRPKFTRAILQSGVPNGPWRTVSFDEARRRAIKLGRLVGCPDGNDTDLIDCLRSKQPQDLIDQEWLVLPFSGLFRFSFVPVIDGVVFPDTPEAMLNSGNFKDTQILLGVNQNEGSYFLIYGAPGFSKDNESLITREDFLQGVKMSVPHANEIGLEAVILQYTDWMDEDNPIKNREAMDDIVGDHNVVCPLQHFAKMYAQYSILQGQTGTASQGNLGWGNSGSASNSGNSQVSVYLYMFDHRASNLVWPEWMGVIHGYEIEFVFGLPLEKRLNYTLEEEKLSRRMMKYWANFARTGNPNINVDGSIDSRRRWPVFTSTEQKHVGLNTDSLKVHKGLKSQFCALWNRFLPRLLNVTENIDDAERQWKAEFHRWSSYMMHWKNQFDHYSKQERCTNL

SMILES	IC50 [1]	Selective Index, IC50 (BChE)/IC50 (AChE) [1]	IC50 [2]	H2O2-Induced PC12 Cell Viability (% of Control) ([3]; compound 10 μM)	H2O2-Induced PC12 Cell Viability (% of Control) ([3]; compound 30 μM)	Cell Viability (% of Control) ([4]; compound 30 μM)	Cell Viability (% of Control) ([4]; compound 50 μM)
O=C1c2cc(NS(=O)(=O)c3ccccc3)ccc2-n2c1nc1ccccc1c2=O [4a]	0.97 ± 0.16 µM	10.3	9.98 ± 0.64 µM	43.29 ± 3.1 % of Control	48.5 ± 1.5 % of Control	99.5 ± 1.7 % of Control	98.3 ± 3.0 % of Control
Cc1ccc(S(=O)(=O)Nc2ccc3c(c2)C(=O)c2nc4ccccc4c(=O)n2-3)cc1 [4b]	5.75 ± 0.27 µM	1.5	8.61 ± 1.2 µM	47.36 ± 1.7 % of Control	59.09 ± 2.5 % of Control	99.7 ± 0.9 % of Control	99.5 ± 1.5 % of Control
CC(C)(C)c1ccc(S(=O)(=O)Nc2ccc3c(c2)C(=O)c2nc4ccccc4c(=O)n2-3)cc1 [4c]	2.56 ± 0.32 µM	3.2	8.13 ± 1.21 µM	45.59 ± 0.7 % of Control	56.4 ± 1.2 % of Control	99.5 ± 3.1 % of Control	98.2 ± 1.7 % of Control
CC(C)c1cc(C(C)C)c(S(=O)(=O)Nc2ccc3c(c2)C(=O)c2nc4ccccc4c(=O)n2-3)c(C(C)C)c1 [4d]	> 50 µM	–	> 50 µM	42.53 ± 2.7 % of Control	50.1 ± 0.8 % of Control	99.4 ± 2.4 % of Control	97.3 ± 3.6 % of Control
O=C1c2cc(NS(=O)(=O)c3ccc(Br)cc3)ccc2-n2c1nc1ccccc1c2=O [4e]	33 ± 1.91 µM	–	> 50 µM	42.8 ± 1.5 % of Control	57.51 ± 0.8 % of Control	99.6 ± 2.1 % of Control	99.5 ± 2.3 % of Control
O=C1c2cc(NS(=O)(=O)c3ccc(F)cc3)ccc2-n2c1nc1ccccc1c2=O [4f]	0.56 ± 0.07 µM	21.2	11.9 ± 1.86 µM	45.23 ± 2.2 % of Control	55.26 ± 0.5 % of Control	99.4 ± 1.6 % of Control	98.7 ± 1.1 % of Control
O=C1c2cc(NS(=O)(=O)c3cccc(F)c3)ccc2-n2c1nc1ccccc1c2=O [4g]	3.21 ± 0.39 µM	6.7	21.6 ± 1.79 µM	59.88 ± 0.9 % of Control	68.83 ± 2.7 % of Control	100 ± 1.3 % of Control	99.7 ± 0.8 % of Control
CC(=O)Nc1ccc(S(=O)(=O)Nc2ccc3c(c2)C(=O)c2nc4ccccc4c(=O)n2-3)cc1 [4i]	8.8 ± 1.23 µM	–	> 50 µM	34.43 ± 5.5 % of Control	40.93 ± 2.9 % of Control	99.6 ± 1.7 % of Control	98.3 ± 3.0 % of Control
COc1ccc(S(=O)(=O)Nc2ccc3c(c2)C(=O)c2nc4ccccc4c(=O)n2-3)cc1 [4j]	> 50 µM	–	> 50 µM	38.24 ± 3.1 % of Control	41.69 ± 1.7 % of Control	99.7 ± 1.6 % of Control	99.1 ± 1.2 % of Control
COc1ccc(S(=O)(=O)Nc2ccc3c(c2)C(=O)c2nc4ccccc4c(=O)n2-3)cc1OC [4k]	25.4 ± 1.53 µM	–	> 50 µM	44.35 ± 1.5 % of Control	46.23 ± 0.6 % of Control	98.8 ± 1.9 % of Control	98.2 ± 3.4 % of Control
